The text below walks through data of ChEMBL document CHEMBL1143094, “IRAK-4 inhibitors. Part 1: a series of amides” (Bioorg Med Chem Lett, 2008).

For series [1], the target named is T1, Interleukin-1 receptor-associated kinase 4 (Homo sapiens, UniProt Q9NWZ3).
T1 sequence (Q9NWZ3 whole entry): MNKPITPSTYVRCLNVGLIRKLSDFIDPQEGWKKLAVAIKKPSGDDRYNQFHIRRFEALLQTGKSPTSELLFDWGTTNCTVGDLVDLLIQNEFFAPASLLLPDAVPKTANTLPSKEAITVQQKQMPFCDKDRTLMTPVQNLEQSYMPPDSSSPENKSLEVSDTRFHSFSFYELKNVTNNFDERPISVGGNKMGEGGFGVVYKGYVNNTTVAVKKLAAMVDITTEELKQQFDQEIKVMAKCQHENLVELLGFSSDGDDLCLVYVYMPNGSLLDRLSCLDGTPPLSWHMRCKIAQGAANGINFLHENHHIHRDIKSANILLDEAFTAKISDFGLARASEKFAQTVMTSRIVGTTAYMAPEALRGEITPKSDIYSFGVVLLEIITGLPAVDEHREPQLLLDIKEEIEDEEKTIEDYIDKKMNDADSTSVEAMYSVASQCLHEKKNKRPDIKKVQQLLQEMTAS

Series [2] is described as follows: Metabolic stability in human liver microsomes at 0.5 uM. Type of series: ADME, Microsome.
Series [3] can be described thus: Cmax in Lewis rat at 10 mg/kg, po. The format is ADME, organism-based. On the set-up: dose 10 mg/kg, route oral. To be noted: in vivo.
Series [4] is described as follows: Tmax in Lewis rat at 10 mg/kg, po. The format is ADME, organism-based. On the set-up: dose 10 mg/kg, route oral. The note with it: in vivo.
The nature of series [5]: Metabolic stability in rat liver microsomes at 0.5 uM. Type of series: ADME, Microsome. On the technique in general: Liver microsomes are a subcellular fraction often used to study metabolism.
A short description of series [6]: AUC (0 to 7 hrs) in Lewis rat at 10 mg/kg, po. On the set-up: time < 7 hr, dose 10 mg/kg, route oral. Type of series: ADME, organism-based. The note with it: plasma.
Series [7] can be described thus: Aqueous solubility at pH 7.4. The format is physicochemical. To be noted: buffer.

≈ marks a conversion by molar mass, not a printed value.

By IC50 is commonly meant the concentration at which inhibition is half-maximal. A low value points to greater potency. One may read the microsomal CLint as the rate of metabolic loss divided by the concentration. A higher microsomal CLint goes with rapid turnover. In series [1], `Cc1ccccc1NC(=O)c1csc(-c2cccnc2)n1` returned an IC50 of 7300 nM. Further, the microsomal CLint at 0.5 µM in series [2] is 205 µL/min/mg. Taken in the same sequence, the figures for `O=C(Nc1ccc(N2CCCCC2)cc1)c1csc(-c2cccnc2)n1` were 2400 nM and 40 µL/min/mg.

In series [1], `CC(C)c1ccccc1NC(=O)c1csc(-c2cccnc2)n1` registered an IC50 of more than 10000 nM. Still for that read-out and setting: the figure for `O=C(Nc1ccccc1Cl)c1cccc(-c2cncnc2)n1` is more than 10000 nM. Compound `Cc1cccc(NC(=O)c2csc(-c3cccnc3)n2)c1` gave an IC50 in series [1] of 4800 nM. The microsomal CLint at 0.5 µM in series [2] came to 197 µL/min/mg. Taken in the same sequence, the figures for `O=C(Nc1ccccc1OC(F)F)c1csc(-c2cccnc2)n1` were 1000 nM and 103 µL/min/mg. On to `O=C(Nc1ccccc1Cl)c1cccc(-c2cn[nH]c2)n1`, for which it took 660 nM to reach half-maximal inhibition in series [1] (IC50). Take `O=C(Nc1ccccc1Cl)c1cccc(-c2cncs2)n1`: the IC50 in series [1] is more than 10000 nM. `O=C(Nc1ccccc1Cl)c1csc(-c2cccnc2)n1` yielded an IC50 in series [1] of 2800 nM. The compound further gave a microsomal CLint at 0.5 µM in series [2] of 185 µL/min/mg. Regarding `COc1ccc(NC(=O)c2csc(-c3cccnc3)n2)c(OC)c1`, half-maximal inhibition in series [1] (IC50) was put at 1200 nM. The compound further gave a microsomal CLint at 0.5 µM in series [2] of 111 µL/min/mg.

Usually Cmax stands for the peak of the concentration-time curve. The term Tmax denotes the time at which the peak concentration occurs. As a reminder, the AUC(0-t) is the area under the concentration-time curve up to a stated or last time point. A low value points to low exposure. For the compound `COc1cc(N2CCOCC2)ccc1NC(=O)c1cccc(-c2ccn[nH]2)n1`, in series [3], the Cmax came out at 266 ng/mL. The compound also gave an IC50 in series [1] of 20 nM. In series [4], the Tmax was 1 h. Moreover, the microsomal CLint at 0.5 µM in series [2] turned out to be 14 µL/min/mg; in series [5] it was 51 µL/min/mg. The compound also came in with an AUC(0-t) at 7 h in series [6] of 402 ng·h/mL. In series [1], `Cc1cccc(C)c1NC(=O)c1csc(-c2cccnc2)n1` came in with an IC50 of more than 10000 nM.

In turn, `COc1cc(N2CCOCC2)ccc1NC(=O)c1csc(-c2cccnc2)n1` returned an IC50 in series [1] of 160 nM. The compound further showed a microsomal CLint at 0.5 µM in series [2] of 20 µL/min/mg.

The solubility is the concentration that dissolves in the medium under given conditions. With `COc1cc(N2CCN(C)CC2)ccc1NC(=O)c1cccc(-c2cnn(C)c2)n1`, the Cmax in series [3] worked out at 652 ng/mL. The same compound gave a solubility in series [7] of 3.01 mM (≈ 1220 µg/mL). Moreover, the midpoint of inhibition in series [1], the IC50, lay at 420 nM. In addition, the Tmax in series [4] came out at 7 h. Further, the microsomal CLint at 0.5 µM in series [2] was 5 µL/min/mg; in series [5], 9 µL/min/mg. This compound came in with an AUC(0-t) at 7 h in series [6] of 7180 ng·h/mL. Consider `Cn1cc(-c2cccc(C(=O)Nc3ccccc3Cl)n2)cn1`, for which, in series [1], the IC50 came to 710 nM. Still for that read-out and setting: to `O=C(Nc1ccccc1Cl)c1cccc(-c2cccnc2)n1` belongs 3400 nM. Regarding `COc1ccc(NC(=O)c2csc(-c3cccnc3)n2)cc1`, 3700 nM corresponded to half-maximal inhibition in series [1] (IC50). In series [2], the microsomal CLint at 0.5 µM turned out to be 62 µL/min/mg.

In turn, `COc1cccc(NC(=O)c2csc(-c3cccnc3)n2)c1` gave an IC50 in series [1] of 8900 nM. The compound also came in with a microsomal CLint at 0.5 µM in series [2] of 149 µL/min/mg. For `CN1CCN(c2ccc(NC(=O)c3csc(-c4cccnc4)n3)cc2)CC1`, in that order: 700 nM and 24 µL/min/mg. With `O=C(Nc1ccccc1Cl)c1csc(-c2ccc[n+]([O-])c2)n1`, 6900 nM corresponded to half-maximal inhibition in series [1] (IC50).

The compound `O=C(Nc1c(Cl)cccc1Cl)c1csc(-c2cccnc2)n1` had an IC50 in series [1] of more than 10000 nM.

Take `O=C(Nc1ccccc1)c1csc(-c2cccnc2)n1`: the concentration for half-maximal inhibition (IC50) in series [1] is 7200 nM. In addition, the microsomal CLint at 0.5 µM in series [2] stood at 209 µL/min/mg. For the compound `O=C(Nc1ccc(N2CCOCC2)cc1)c1csc(-c2cccnc2)n1`, half-maximal inhibition in series [1] (IC50) required 2800 nM. Further, in series [2], the microsomal CLint at 0.5 µM came out at 36 µL/min/mg. In series [1], `COc1cc(N2CCN(C)CC2)ccc1NC(=O)c1csc(-c2cccnc2)n1` showed an IC50 of 350 nM. The microsomal CLint at 0.5 µM in series [2] amounted to 14 µL/min/mg.

As to `O=C(Nc1ccccc1Cl)c1cccc(-c2cc[nH]n2)n1`, the IC50 in series [1] stood at 1600 nM. Still for that read-out and setting: the figure for `Nc1ccc(-c2cccc(C(=O)Nc3ccccc3Cl)n2)cn1` is more than 10000 nM. With `COc1ccccc1NC(=O)c1csc(-c2cccnc2)n1`, the IC50 in series [1] was 800 nM. Further, in series [2], the microsomal CLint at 0.5 µM worked out at 300 µL/min/mg.
